pKi: −log10 of the molar value.
Assays:
[1] = target: T1, Progesterone receptor (Homo sapiens, UniProt P06401); test: Displacement of [3H]-methyltrienolone from human progesterone receptor expressed in HEK293 cells by scintillation counting based radioligand competition binding assay
T1 sequence (P06401 whole entry): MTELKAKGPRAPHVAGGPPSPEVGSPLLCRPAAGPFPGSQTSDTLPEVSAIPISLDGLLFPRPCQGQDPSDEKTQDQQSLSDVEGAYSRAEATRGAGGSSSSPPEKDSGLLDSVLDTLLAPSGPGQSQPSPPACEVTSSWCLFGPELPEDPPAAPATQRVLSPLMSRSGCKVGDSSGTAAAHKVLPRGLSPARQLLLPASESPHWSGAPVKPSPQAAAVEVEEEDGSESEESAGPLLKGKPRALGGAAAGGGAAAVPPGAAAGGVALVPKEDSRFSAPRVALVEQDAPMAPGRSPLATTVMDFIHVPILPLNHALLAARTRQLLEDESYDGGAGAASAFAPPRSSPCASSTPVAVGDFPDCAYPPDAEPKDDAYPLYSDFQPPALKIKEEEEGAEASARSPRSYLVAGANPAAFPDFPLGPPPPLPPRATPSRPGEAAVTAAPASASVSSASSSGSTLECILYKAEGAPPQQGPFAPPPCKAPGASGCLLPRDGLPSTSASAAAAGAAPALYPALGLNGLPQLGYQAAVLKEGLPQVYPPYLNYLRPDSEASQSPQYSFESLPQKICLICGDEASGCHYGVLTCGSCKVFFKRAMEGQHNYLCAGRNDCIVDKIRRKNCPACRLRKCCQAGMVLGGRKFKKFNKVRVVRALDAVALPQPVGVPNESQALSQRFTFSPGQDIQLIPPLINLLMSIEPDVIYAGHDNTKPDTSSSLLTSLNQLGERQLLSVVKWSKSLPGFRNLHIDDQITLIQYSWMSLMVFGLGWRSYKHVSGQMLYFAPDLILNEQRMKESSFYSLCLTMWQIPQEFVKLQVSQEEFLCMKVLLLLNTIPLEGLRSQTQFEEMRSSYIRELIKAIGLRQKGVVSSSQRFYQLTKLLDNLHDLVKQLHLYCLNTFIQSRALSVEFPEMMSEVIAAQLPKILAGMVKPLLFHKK

[2] = target: T2, Mineralocorticoid receptor (Homo sapiens, UniProt P08235); test: biochemical
T2 sequence (P08235 whole entry): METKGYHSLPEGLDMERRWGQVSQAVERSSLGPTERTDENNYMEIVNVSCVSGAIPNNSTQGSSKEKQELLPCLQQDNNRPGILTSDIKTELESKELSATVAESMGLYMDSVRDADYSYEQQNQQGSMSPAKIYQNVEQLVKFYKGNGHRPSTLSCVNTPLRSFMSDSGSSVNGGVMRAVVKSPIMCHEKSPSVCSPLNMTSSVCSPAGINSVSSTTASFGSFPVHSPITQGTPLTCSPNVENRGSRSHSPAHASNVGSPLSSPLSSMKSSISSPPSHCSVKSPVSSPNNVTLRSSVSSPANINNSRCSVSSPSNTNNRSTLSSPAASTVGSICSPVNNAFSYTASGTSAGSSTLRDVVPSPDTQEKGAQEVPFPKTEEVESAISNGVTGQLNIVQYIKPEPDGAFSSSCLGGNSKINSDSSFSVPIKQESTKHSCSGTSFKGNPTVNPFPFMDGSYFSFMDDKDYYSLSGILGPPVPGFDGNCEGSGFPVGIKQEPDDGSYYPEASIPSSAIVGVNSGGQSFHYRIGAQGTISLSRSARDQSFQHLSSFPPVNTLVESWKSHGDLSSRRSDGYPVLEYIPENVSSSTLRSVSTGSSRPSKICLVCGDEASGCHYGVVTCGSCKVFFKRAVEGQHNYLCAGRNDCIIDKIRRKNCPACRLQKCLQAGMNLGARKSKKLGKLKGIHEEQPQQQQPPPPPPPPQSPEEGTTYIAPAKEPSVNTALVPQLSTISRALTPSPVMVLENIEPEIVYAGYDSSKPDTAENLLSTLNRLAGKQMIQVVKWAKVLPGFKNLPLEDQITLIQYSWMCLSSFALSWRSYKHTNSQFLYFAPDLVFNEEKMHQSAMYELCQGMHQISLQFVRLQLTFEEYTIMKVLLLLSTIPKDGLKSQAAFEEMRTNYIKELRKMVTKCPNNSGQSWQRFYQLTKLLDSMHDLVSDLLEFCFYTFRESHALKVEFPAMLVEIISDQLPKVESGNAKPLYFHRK
Description: Displacement of [3H]-aldosterone from human mineralocorticoid receptor expressed in HEK293 cells by scintillation counting based radioligand competition binding assay

[3] = target: T3, Androgen receptor (Homo sapiens, UniProt P10275); test: biochemical
T3 sequence (P10275 whole entry): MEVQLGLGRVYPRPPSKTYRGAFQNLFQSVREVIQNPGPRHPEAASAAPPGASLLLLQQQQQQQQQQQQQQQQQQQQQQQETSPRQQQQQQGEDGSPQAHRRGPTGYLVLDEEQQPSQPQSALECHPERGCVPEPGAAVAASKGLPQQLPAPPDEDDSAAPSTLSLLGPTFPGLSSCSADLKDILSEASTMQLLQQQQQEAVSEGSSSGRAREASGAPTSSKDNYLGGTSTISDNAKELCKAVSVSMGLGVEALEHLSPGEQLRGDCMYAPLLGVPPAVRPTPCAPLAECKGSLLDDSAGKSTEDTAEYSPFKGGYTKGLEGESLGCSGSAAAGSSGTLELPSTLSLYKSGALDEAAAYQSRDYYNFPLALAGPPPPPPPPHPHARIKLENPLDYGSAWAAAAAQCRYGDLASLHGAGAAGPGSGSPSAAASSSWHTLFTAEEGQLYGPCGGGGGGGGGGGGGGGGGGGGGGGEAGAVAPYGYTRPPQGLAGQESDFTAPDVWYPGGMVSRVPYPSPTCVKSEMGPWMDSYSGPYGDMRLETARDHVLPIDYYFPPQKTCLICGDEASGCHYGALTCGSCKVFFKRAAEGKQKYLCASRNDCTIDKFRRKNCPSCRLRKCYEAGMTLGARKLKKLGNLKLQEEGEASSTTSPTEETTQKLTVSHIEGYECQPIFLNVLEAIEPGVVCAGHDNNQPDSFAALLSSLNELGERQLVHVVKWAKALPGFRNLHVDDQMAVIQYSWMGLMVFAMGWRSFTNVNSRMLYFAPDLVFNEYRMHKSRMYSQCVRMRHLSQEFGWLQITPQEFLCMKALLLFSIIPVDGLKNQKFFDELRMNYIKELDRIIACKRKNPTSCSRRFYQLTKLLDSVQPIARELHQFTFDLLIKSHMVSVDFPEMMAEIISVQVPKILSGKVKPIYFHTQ
Description: Displacement of [3H]-methyltrienolone from human androgen receptor expressed in HEK293 cells by scintillation counting based radioligand competition binding assay

SMILES	pKi [1]	pKi [2]	pKi [3]
CS(=O)(=O)Nc1cccc2c(-c3ccc(F)cc3)c[nH]c12	7.54	6.65	6.30
COc1cc(F)ccc1-c1c(Cc2ccccc2)[nH]c2c(NS(C)(=O)=O)cc(C(C)C)cc12	5.40	5.37	6.16
CS(=O)(=O)Nc1cccc2cc[nH]c12	6.98	6.02	6.45
COc1cc(F)ccc1-c1c(CN(C)Cc2ccccc2)[nH]c2c(NS(C)(=O)=O)cc(C(C)(C)C)cc12	6.60	5.41	6.64
COc1cc(NS(C)(=O)=O)c2[nH]c(C)c(-c3ccccc3)c2c1	5.40	5.41	5.39
COc1cc(F)ccc1-c1c(CN(C)Cc2ccccc2)[nH]c2c(N)cc(F)cc12	5.38	5.67	5.38
COc1ccc(Cl)cc1-c1c[nH]c2c(NS(C)(=O)=O)cccc12	6.63	5.35	6.16
COc1cc(NS(C)(=O)=O)c2[nH]c(C)c(-c3cc(F)ccc3OC)c2c1	7.65	7.42	5.95
COc1ccc(F)cc1-c1c(-c2ccccc2)[nH]c2c(NS(C)(=O)=O)cccc12	7.35	5.41	6.04
COc1ccccc1-c1c[nH]c2c(NS(C)(=O)=O)cccc12	7.07	–	6.40
COc1cc(F)ccc1-c1c(CN(C)Cc2ccccc2)[nH]c2c(NS(C)(=O)=O)cc(C(C)C)cc12	7.19	5.80	6.63
COc1cc(F)ccc1-c1c(C)[nH]c2c(NS(C)(=O)=O)cc(F)cc12	7.69	7.35	5.95
CS(=O)(=O)Nc1cccc2c(-c3cccc(Cl)c3)c[nH]c12	8.26	8.68	7.04

Source: ChEMBL document CHEMBL3603837, “Indole Glucocorticoid Receptor Antagonists Active in a Model of Dyslipidemia Act via a Unique Association with an Agonist Binding Site” (J Med Chem, 2015)
